Source: US20160258951A1, “METHODS OF MONITORING IMMUNE RESPONSES” (THE HENRY M. JACKSON FOUNDATION FOR THE ADVANCEMENT OF …, priority 2013, published 2016)
Where “and” joins values, the source holds several entries; their conditions need not be identical. Equal values may be shown once.

Experiments:
[1] = tested on: CD8 T lymphocytes; assay: HLA-A2:Ig dimer staining with control peptide-loaded dimers; type: cell-based, human; details: almost 2000 peripheral blood samples from about 200-300 patients
[2] = tested on: patients with HER2/neu+ breast cancer; details: clinical vaccines in HER2/neu+ breast cancer; cited from earlier work

NH2-RIAWARTEL-COOH (H-RIAWARTEL-OH) [E37]
background binding value of negative control dimers [1]: 03% and 0.25-0.34%

IISAVVGIL [GP2]
safety and stimulation of antigen-specific immunity [2]: safe and effective in stimulating antigen-specific immunity
